Assay results: patent publication US8519124B2, “Chemokine receptor antagonists and use thereof” (Ono Pharmaceutical Co., Ltd., priority 2005, dated 2013)

Tests used:
[1] = Measurement of maximum plasma level (Cmax) and bioavailability (BA); format: in vivo; settings: male, Crl:CD(SD), po; rat plasma; orally administered solution 10 mg/kg, fasting
Description: Measurement of Maximum Plasma Level (CMax) and Bioavailability (BA)
A test compound is weighed, dissolved in Solutol (trade name; manufactured by BASF-TAKEDA Vitamins Ltd.)/propylene glycol=7/3 which is heated to 60° C. and adjusted to 20 mg/mL; thereafter, the test compound is diluted by 10 times with distilled water for injection, and further diluted by 2 times with saline solution, by which intravenously administered solution is eventually made. The test compound is weighed, dissolved in Solutol (trade name; manufactured by BASF-TAKEDA Vitamins Ltd.)/propylene glycol=7/3 which is heated to 60° C., and adjusted to 20 mg/mL; thereafter, the test compound is diluted by 10 times with distilled water for injection, by which orally administered solution is eventually made. Intravenous administration is performed by rapid single administration (n=3) of intravenously administered solution (1 mg/kg) from the tail vein of Crl:CD(SD) Rat (male, manufactured by CHARLES RIVER LABORATORIES JAPAN, INC). Oral administration is performed by forced administration (n=3) of orally administered solution (10 mg/kg) into the stomach of Crl:CD(SD) Rat (male, manufactured by CHARLES RIVER LABORATORIES JAPAN, INC.) using a sonde. The administration is conducted under fasting conditions; water is freely ingested. A 0.35 mL blood sample is taken from cervical vein by using Heparinized Syringe at 15 minutes, 30 minutes, 1 hour, 2 hours, 4 hours, 6 hours, 8 hours, and 24 hours after administration. The obtained blood is stored in ice, and after centrifugation at 12,000 rpm for 5 minutes, blood plasma is fractionated. The blood plasma is preserved at a temperature of −80° C. The sample of blood plasma preserved at a temperature of −80° C. is dissolved; inner standard solution (100 μL) and acetonitrile (2 mL) are added to the blood plasma sample 100 μL and stirred; and the sample is centrifuged at 2,500 rpm for 10 minutes. After the supernatant is evaporated to dryness by means of a centrifugal concentrator, 67% dimethyl sulfoxide solution (150 μL) is added to the residue and dissolves them again; and 20 μL of the solution is analyzed by means of LC/MS/MS.
The analysis by means of LC/MS/MS should be performed, for example, under the following conditions:
Measurement device: Waters 2795 (manufactured by Waters Corporation)
Analytical column: Unison UK-C18, 3.0 μm particle size, 2.0 mm×30 mm (manufactured by Imtakt Corporation)
Analytical column temperature: Room temperature
Moving bed: 5 mM IPC-PFAA-7 solution/acetonitrile (9/1→1/9)
Measurement device: Quatro micro API (manufactured by Micromass Communications Inc.)
Method for ionization: ES+
Capillary electric potential: 3.30 kV
Source temperature: 120° C.
Desolvation temperature: 350° C.
The monitor ion which was suitable for each sample was selected.
The concentration transition in the rat blood plasma of the test compound is analyzed by means of non-compartment analysis method by using WinNonlin 4.0.1 (manufactured by Pharsight Corporation) to calculate the maximum blood concentration Cmax and the area under the blood concentration curve AUC.
BA is calculated by means of the following formula: BA(%)={(AUCp.o./Dosep.o.)/(AUCi.v./Dosei.v.)}×100
AUCp.o.: AUC in oral administration
Dosep.o.: Amount of the drug orally administered
AUCi.v.: AUC in intravenous administration
Dosei.v.: Amount of the drug intravenously administered

[2] = system: DOPA liposome (artificial lipid membrane); test: Artificial lipid membrane binding by using Biacore S51 system; settings: 50 μM compound
Description: Artificial Lipid Membrane Binding Account by Using Biacore (Registered Trademark) S51 System
10 mM of 1,2-Dioleoyl-sn-Glycero-3-Phosphate, Monosodium Salt (hereinafter abbreviated as DOPA) chloroform solution was evaporated to dryness by means of an aspirator, and 0.6 mL of PBS/5% dimethyl sulfoxide (hereinafter abbreviated as DMSO) was added. The chloroform solution was fully suspended by means of a vortex mixer, and the freezing and thawing were repeated for 5 times. Liposome was created by means of a liposome adjustment instrument (manufactured by Avestin Inc.) and 2 syringes, and was diluted to 0.5 mM with PBS/5% DMSO just prior to immobilization.
(ii) Measurement Compound Adjustment
The 38 μL of 1×PBS is added to 2 μL DMSO solution (10 mM), and further the 360 μL 1×PBS/5% DMSO was added; the 50 μM of final concentration in the 1×PBS/5% DMSO was adjusted and measured.
All of the following analysis used Biacore® S51 system; the measurement conditions were set by Biacore S51 Control Soft.
The measurement temperature was set to be 37° C., and the 1×PBS/5% DMSO (pH 7.4 or PH 6.0) was used as a buffer. Series S Sensor Chip L1 was used for a sensor chip. The DOPA was immobilized in one of the measuring spots on the sensor surface, and the central spot was used as a reference.
Immobilization of liposome was conducted at a flow rate of 10 μL/min for about 3 minutes; then the compound was added at a flow rate of 30 μL/min and the interaction was measured. The measurement conditions are as follows:
Assay buffer: PBS/5% DMSO (pH 7.4 or PH 6.0)
Measurement temperature: 37° C.
Sensor chip: Series S Sensor Chip L1
Flow rate: 10 μL/min at the time of the liposome immobilization; 30 μL/min at the time of the measurement of interaction with the compound
Regeneration: 20 mM CHAPS (3-[(3-Cholamidopropyl)dimethylammonio]-1-propanesulfonate), Isopropanol/50 mM sodium hydroxide solution=40/60 (volume ratio) mixture (60 seconds)
The data processing was conducted by means of method of Abdiche et al. (Analytical biochemistry, 328, 233-243 (2004)) by using Biacore S51 Evaluation Soft.
Regarding the value of binding response (RU) in which the value of reference was subtracted, it was divided by a sample molecular weight after minute error of the DMSO concentration included in the sample solution was corrected. In addition, the value obtained here was divided by an amount of capture at the time of the cycle because the value obtained here was proportional to the amount of capture of the liposome; further, the value was multiplied by a million to be considered as a corrected value (Corrected value=1000000)×RU (test compound)/molecular quantity (test compound) RU (liposome)).
Propranolol, Amiodarone, Desipramine, Imipramine and Procaine were added as the controls, and it was recognized that the variation of the binding response was within ca. 10 to 15%.
The compound, in which a value of the binding response after the correction was equal to or more than 150, was determined as positive.

Cmax [1]: 46 ng/mL
Corrected value of binding response (RU) ([2]; DOPA liposome on Sensor Chip L1, 37° C., PBS/5% DMSO (pH 7.4 or PH 6.0)): 80.7 RU
SMILES: CC(C)(C)CN1CCC2(CCN(Cc3ccc(C(=O)N(Cc4ncc[nH]4)Cc4ncc[nH]4)cc3)CC2)C1 [Example 8 (114), 4-{[2-(2,2-dimethylpropyl)-2,8-diazaspiro[4.5]dec-8-yl]methyl}-N,N-bis(1H-imidazol-2-ylmethyl)benzamide]
Judgement (phospholipidosis inductive effect) ([2]; DOPA liposome): negative
